Laboratory results taken from US9399635B2, “Pyrazole derivative” (GREEN TECH CO., LTD., priority 2011, dated 2016).

SMILES | melting point [°C]
C(=C\c1cc(/C=C/c2ccc3[nH]ccc3c2)[nH]n1)/c1ccc(OCc2ccccn2)cc1 [Example 4, 3-[(1E)-2-(1H-indol-5-yl)ethenyl]-5-[(1E)-2-[4-(2-pyridylmethoxy)phenyl]ethenyl]-1H-pyrazole] | 95 to 102
COc1cc(/C=C/c2cc(/C=C/c3ccc4[nH]ccc4c3)[nH]n2)ccc1OCc1ccccn1 [Example 5, 3-[(1E)-2-(1H-indol-5-yl)ethenyl]-5-[(1E)-2-[3-methoxy-4-(2-pyridylmethoxy)phenyl]ethenyl]-1H-pyrazole] | 96 to 101
COc1ccc(/C=C/c2cc(/C=C/c3ccc4[nH]ccc4c3)[nH]n2)cc1OCc1ccccn1 [Example 6, 3-[(1E)-2-(1H-indol-5-yl)ethenyl]-5-[(1E)-2-[4-methoxy-3-(2-pyridylmethoxy)phenyl]ethenyl]-1H-pyrazole] | 109 to 118
C(=C\c1cc(/C=C/c2ccc3[nH]ccc3c2)[nH]n1)/c1cccc(OCc2ccccn2)c1 [Example 7, 3-[(1E)-2-(1H-indol-5-yl)ethenyl]-5-[(1E)-2-[3-(2-pyridylmethoxy)phenyl]ethenyl]-1H-pyrazole] | 183 to 186
C(=C\c1cc(/C=C/c2c[nH]c3ccccc23)[nH]n1)/c1ccc(OCc2ccccn2)cc1 [Example 10, 3-[(1E)-2-(1H-indol-3-yl)ethenyl]-5-[(1E)-2-[4-(2-pyridylmethoxy)phenyl]ethenyl]-1H-pyrazole] | 196 to 199
COc1cc(/C=C/c2cc(/C=C/c3c[nH]c4ccccc34)[nH]n2)ccc1OCc1ccccn1 [Example 11, 3-[(1E)-2-(1H-indol-3-yl)ethenyl]-5-[(1E)-2-[3-methoxy-4-(2-pyridylmethoxy)phenyl]ethenyl]-1H-pyrazole] | 120 to 130
COc1ccc(/C=C/c2cc(/C=C/c3c[nH]c4ccccc34)[nH]n2)cc1OCc1ccccn1 [Example 12, 3-[(1E)-2-(1H-indol-3-yl)ethenyl]-5-[(1E)-2-[4-methoxy-3-(2-pyridylmethoxy)phenyl]ethenyl]-1H-pyrazole] | 232 to 243
C(=C\c1cc(/C=C/c2c[nH]c3ccccc23)[nH]n1)/c1cccc(OCc2ccccn2)c1 [Example 13, 3-[(1E)-2-(1H-indol-3-yl)ethenyl]-5-[(1E)-2-[3-(2-pyridylmethoxy)phenyl]ethenyl]-1H-pyrazole] | 198 to 201
C(=C\c1cc(/C=C/c2ccc3cc[nH]c3c2)[nH]n1)/c1ccc(OCc2ccccn2)cc1 [Example 16, 3-[(1E)-2-(1H-indol-6-yl)ethenyl]-5-[(1E)-2-[4-(2-pyridylmethoxy)phenyl]ethenyl]-1H-pyrazole] | 211 to 214
COc1cc(/C=C/c2cc(/C=C/c3ccc4cc[nH]c4c3)[nH]n2)ccc1OCc1ccccn1 [Example 17, 3-[(1E)-2-(1H-indol-6-yl)ethenyl]-5-[(1E)-2-[3-methoxy-4-(2-pyridylmethoxy)phenyl]ethenyl]-1H-pyrazole] | 236 to 243
COc1ccc(/C=C/c2cc(/C=C/c3ccc4cc[nH]c4c3)[nH]n2)cc1OCc1ccccn1 [Example 18, 3-[(1E)-2-(1H-indol-6-yl)ethenyl]-5-[(1E)-2-[4-methoxy-3-(2-pyridylmethoxy)phenyl]ethenyl]-1H-pyrazole] | 110 to 117
C(=C\c1cc(/C=C/c2ccc3cc[nH]c3c2)[nH]n1)/c1cccc(OCc2ccccn2)c1 [Example 19, 3-[(1E)-2-(1H-indol-6-yl)ethenyl]-5-[(1E)-2-[3-(2-pyridylmethoxy)phenyl]ethenyl]-1H-pyrazole] | 193 to 195

The next lines start with the values.

melting point [°C] | SMILES
109 to 114 | COc1c(/C=C/c2cc(/C=C/c3ccc4cc[nH]c4c3)[nH]n2)cccc1OCc1ccccn1 [Example 22, 3-[(1E)-2-(1H-indol-6-yl)ethenyl]-5-[(1E)-2-[2-methoxy-3-(2-pyridylmethoxy)phenyl]ethenyl]-1H -pyrazole]
88 to 93 | COc1cc(/C=C/c2cc(/C=C/c3ccc4cc[nH]c4c3)[nH]n2)cc(OCc2ccccn2)c1 [Example 25, 3-[(1E)-2-(1H-indol-6-yl)ethenyl]-5-[(1E)-2-[3-methoxy-5-(2-pyridylmethoxy)phenyl]ethenyl]-1H-pyrazole]
150 to 155 | COc1cc(OCCN2CCCCC2)ccc1/C=C/c1cc(/C=C/c2ccc3cc[nH]c3c2)[nH]n1 [Example 26, 3-[(1E)-2-(1H-indol-6-yl)ethenyl]-5-[(1E)-2-[2-methoxy-4-(2-piperidinoethoxy)phenyl]ethenyl]-1H-pyrazole]
134 to 142 | COc1cc(OCCN2CCN(C)CC2)ccc1/C=C/c1cc(/C=C/c2ccc3cc[nH]c3c2)[nH]n1 [Example 28, 3-[(1E)-2-(1H-indol-6-yl)ethenyl]-5-[(1E)-2-[2-methoxy-4-[2-(4-methylpiperazino)ethoxy]phenyl]ethenyl]-1H-pyrazole]
194 to 199 | COc1cc(O[C@@H]2O[C@H](CO)[C@@H](O)[C@H](O)[C@H]2O)ccc1/C=C/c1cc(/C=C/c2ccc3cc[nH]c3c2)[nH]n1 [Example 29, 3-[(1E)-2-(1H-indol-6-yl)ethenyl]-5-[(1E)-2-[4-[(β-D-glucopyranosyl)oxy]-2-methoxyphenyl]ethenyl]-1H-pyrazole]
113 to 120 | COc1cc(OCc2ccccn2)ccc1/C=C/c1cc(/C=C/c2ccc3[nH]nnc3c2)[nH]n1 [Example 30, 3-[(1E)-2-(1H-benzotriazol-5-yl)ethenyl]-5-[(1E)-2-[2-methoxy-4-(2-pyridylmethoxy)phenyl]ethenyl]-1H-pyrazole]
205 to 213 | COc1cc(OCc2ccccn2)ccc1/C=C/c1cc(/C=C/c2ccc3nccnc3c2)[nH]n1 [Example 32, 3-[(1E)-2-[2-methoxy-4-(2-pyridylmethoxy)phenyl]ethenyl]-5-[(1E)-2-(quinoxalin-6-yl)ethenyl]-1H-pyrazole]
199.4 to 200.9 | COc1cc(OCc2ccccn2)ccc1/C=C/c1cc(/C=C/c2cc3ccccc3o2)[nH]n1 [Example 33, 3-[(1E)-2-(benzofuran-2-yl)ethenyl]-5-[(1E)-2-[2-methoxy-4-(2-pyridylmethoxy)phenyl]ethenyl]-1H-pyrazole]
231.1 to 232.1 | COc1cc(OCc2ccccn2)ccc1/C=C/c1cc(/C=C/c2cc3ccccc3s2)[nH]n1 [Example 34, 3-[(1E)-2-(benzothiophen-2-yl)ethenyl]-5-[(1E)-2-[2-methoxy-4-(2-pyridylmethoxy)phenyl]ethenyl]-1H-pyrazole]
112 to 116 | COc1cc(OCc2ccccn2)ccc1/C=C/c1cc(/C=C/c2c[nH]c3ccccc23)[nH]n1 [Example 38, 3-[(1E)-2-(1H-indol-3-yl)ethenyl]-5-[(1E)-2-[2-methoxy-4-(2-pyridylmethoxy)phenyl]ethenyl]-1H-pyrazole]
108 to 113 | COc1cc(OCc2ccccn2)ccc1/C=C/c1cc(/C=C/c2cccc3[nH]ccc23)[nH]n1 [Example 39, 3-[(1E)-2-(1H-indol-4-yl)ethenyl]-5-[(1E)-2-[2-methoxy-4-(2-pyridylmethoxy)phenyl]ethenyl]-1H-pyrazole]
98 to 104 | COc1cc(OCc2ccccn2)ccc1/C=C/c1cc(/C=C/c2ccc3[nH]ccc3c2)[nH]n1 [Example 40, 3-[(1E)-2-(1H-indol-5-yl)ethenyl]-5-[(1E)-2-[2-methoxy-4-(2-pyridylmethoxy)phenyl]ethenyl]-1H-pyrazole]
